Data: ChEMBL document CHEMBL4513135, “CO-ADD screening of IQOG CSIS (Spain) compounds”
Converted amounts (≈) assume the structure as drawn.

Legend:
Klebsiella pneumoniae = assay: microbe, parasite or virus in culture; settings: ATCC 700603, 18 h, ASSAY_TEST Inhibition of Bacterial Growth, detection method Absorption (OD600), MEDIA CAMHB, plate type 384well, NBS, CORNING #3640
Candida albicans = assay: microbe, parasite or virus in culture; settings: ATCC 90028, ASSAY_TEST Inhibition of Fungal Growth, detection method Absorption (OD530), plate type 384well, NBS, CORNING #3640
Acinetobacter baumannii = assay: microbe, parasite or virus in culture; settings: ATCC 19606, 18 h, ASSAY_TEST Inhibition of Bacterial Growth, detection method Absorption (OD600), MEDIA CAMHB, plate type 384well, NBS, CORNING #3640
Escherichia coli = assay: microbe, parasite or virus in culture; settings: ATCC 25922, 18 h, ASSAY_TEST Inhibition of Bacterial Growth, detection method Absorption (OD600), MEDIA CAMHB, plate type 384well, NBS, CORNING #3640
HEK293 = assay: cells; assay type: functional; settings: Homo sapiens, ATCC CRL1573, HEK293; ASSAY_TEST Inhibition of Cell Viability; detection method Resazurin; Fluorescence (ex560/em590); MEDIA DMEM with 10% FBS; plate type 384well; TC; CORNING #3712; time 18 hr
Pseudomonas aeruginosa = assay: microbe, parasite or virus in culture; settings: ATCC 27853, 18 h, ASSAY_TEST Inhibition of Bacterial Growth, detection method Absorption (OD600), MEDIA CAMHB, plate type 384well, NBS, CORNING #3640
Staphylococcus aureus = assay: microbe, parasite or virus in culture; settings: ATCC 43300, 18 h, ASSAY_TEST Inhibition of Bacterial Growth, detection method Absorption (OD600), MEDIA CAMHB, plate type 384well, NBS, CORNING #3640

| MIC (Cryptococcus neoformans) | MIC (Klebsiella pneumoniae) | MIC (Candida albicans) | MIC (Acinetobacter baumannii) | MIC (Escherichia coli) | MIC (Pseudomonas aeruginosa) | MIC (Staphylococcus aureus) | SMILES | CC50 (HEK293) |
| --- | --- | --- | --- | --- | --- | --- | --- | --- |
| > 32 µg/mL | > 32 µg/mL | 32 µg/mL | > 32 µg/mL | > 32 µg/mL | > 32 µg/mL | > 32 µg/mL | C#CCN(C)Cc1cc2cc(OCc3ccccc3)ccc2[nH]1.O=C(O)C(=O)O | > 32 µg/mL |
| > 32 µg/mL | > 32 µg/mL | > 32 µg/mL | > 32 µg/mL | > 32 µg/mL | > 32 µg/mL | > 32 µg/mL | N#CC1=C(N)Oc2ccc3ccccc3c2C1c1ccc([N+](=O)[O-])cc1 (configuration not stated) | 1.88 µg/mL (≈ 5.48 µM) |
| > 32 µg/mL | > 32 µg/mL | > 32 µg/mL | > 32 µg/mL | > 32 µg/mL | > 32 µg/mL | 32 µg/mL (≈ 81.3 µM) | CCOC(=O)C1=C(C)Nc2nc3c(c(N)c2C1c1ccccc1OC)CCCC3 (configuration not stated) |  |
| 32 µg/mL (≈ 120 µM) | > 32 µg/mL | > 32 µg/mL | > 32 µg/mL | > 32 µg/mL | 32 µg/mL (≈ 120 µM) | > 32 µg/mL | COc1ccc2[nH]c3nc4c(c(N)c3c2c1)CCCC4 | 15 µg/mL (≈ 56.1 µM) |
| > 32 µg/mL | > 32 µg/mL | 16 µg/mL (≈ 82.6 µM) | > 32 µg/mL | > 32 µg/mL | > 32 µg/mL | > 32 µg/mL | COc1nc(Cl)c(C#N)cc1C#N | 0.56 µg/mL (≈ 2.89 µM) |
|  | > 32 µg/mL | > 32 µg/mL | > 32 µg/mL | > 32 µg/mL | > 32 µg/mL | 32 µg/mL | CCOC(=O)C1=C(C)Nc2nc3c(c(N)c2C1c1ccccc1OC)CCCC3.Cl (configuration not stated) |  |
| > 32 µg/mL | > 32 µg/mL | > 32 µg/mL | > 32 µg/mL | > 32 µg/mL | > 32 µg/mL | > 32 µg/mL | CC1CC(=O)Nc2c1c(Br)nc1nc3c(c(N)c21)CCCC3 (configuration not stated) | 4.01 µg/mL (≈ 11.1 µM) |
| > 32 µg/mL | > 32 µg/mL | > 32 µg/mL | > 32 µg/mL | > 32 µg/mL | > 32 µg/mL | > 32 µg/mL | C#CCN(C)c1nc(N)c(C#N)c(-c2ccccc2)c1C#N | > 32 µg/mL |
| > 32 µg/mL | > 32 µg/mL | > 32 µg/mL | > 32 µg/mL | > 32 µg/mL | > 32 µg/mL | > 32 µg/mL | Nc1n[nH]c2nc3[nH]nc(N)c3c(-c3ccccc3)c12 | 8.23 µg/mL (≈ 31 µM) |
| > 32 µg/mL | > 32 µg/mL | > 32 µg/mL | > 32 µg/mL | > 32 µg/mL | > 32 µg/mL | > 32 µg/mL | N#CC1=C(N)Oc2c(ccc3ccccc23)C1c1ccccc1[N+](=O)[O-] (configuration not stated) | > 32 µg/mL |
| 16 µg/mL | > 32 µg/mL | > 32 µg/mL | > 32 µg/mL | > 32 µg/mL | > 32 µg/mL | > 32 µg/mL | C#CCN(C)c1nc(NCCCCC2CCN(Cc3ccccc3)CC2)c(C#N)c(-c2ccccc2)c1C#N.Cl | 4.12 µg/mL |
| > 32 µg/mL | > 32 µg/mL | > 32 µg/mL | > 32 µg/mL | > 32 µg/mL | > 32 µg/mL | > 32 µg/mL | CN(Cc1cn(-c2ccccc2)nn1)Cc1cc2cc(OCCCC3CCN(Cc4ccccc4)CC3)ccc2n1C.Cl | 3.55 µg/mL |
| > 32 µg/mL | > 32 µg/mL | > 32 µg/mL | > 32 µg/mL | > 32 µg/mL | > 32 µg/mL | > 32 µg/mL | C#CCNc1ccc(Cl)cn1 | > 32 µg/mL |
| > 32 µg/mL | > 32 µg/mL | > 32 µg/mL | > 32 µg/mL | > 32 µg/mL | > 32 µg/mL | > 32 µg/mL | C#CCN(C)Cc1cc2cc(OCCCC3CCNCC3)ccc2n1C.C#CCN(C)Cc1cc2cc(OCCCC3CCNCC3)ccc2n1C.Cl.Cl.Cl.Cl.O | 17.2 µg/mL |
| > 32 µg/mL | > 32 µg/mL | > 32 µg/mL | > 32 µg/mL | > 32 µg/mL | > 32 µg/mL | > 32 µg/mL | N#CC1(Br)C(=N)Oc2ccc3ccccc3c2C1c1ccccc1[N+](=O)[O-] (configuration not stated) | 5.83 µg/mL (≈ 13.8 µM) |
